# In US10350271B2, “Lipidated peptides for lowering blood glucose” (USTAV ORGANICKE CHEMIE A BIOCHEMIE AKADEMIE VED CR, V.V.I., priority 2014, dated 2019):
# Square brackets hold non-standard residues; d marks the D form. Peptide text beside a SMILES is read from it. * marks the point of attachment. Phe(4-NO2) = N[C@@H](Cc1ccc([N+](=O)[O-])cc1)C(=O)O; Phe(3,4-Cl2) = N[C@@H](Cc1ccc(Cl)c(Cl)c1)C(=O)O; Myristoyl = CCCCCCCCCCCCCC(=O)*; Nle = CCCC[C@H](N)C(=O)O
# Columns and labels:
# rat PrRP receptor = target: T1, rat PrRP receptor (Rattus norvegicus, UniProt Q64121); experiment: Competitive binding in RC-4B/C rat pituitary cells (125I-rat PrRP31); settings: for Ki: RC-4B/C cells, displacement of 125I-rat PrRP31, read-out: Ki, RC-4B/C rat pituitary cells ^25I-rat PrRP31; for % of PrRP31, RC-4B/C rat pituitary cells: affinity relative to PrRP31
# T1 construct: host or cells: RC-4B/C rat pituitary cell line
# T1 sequence (Q64121 1-370): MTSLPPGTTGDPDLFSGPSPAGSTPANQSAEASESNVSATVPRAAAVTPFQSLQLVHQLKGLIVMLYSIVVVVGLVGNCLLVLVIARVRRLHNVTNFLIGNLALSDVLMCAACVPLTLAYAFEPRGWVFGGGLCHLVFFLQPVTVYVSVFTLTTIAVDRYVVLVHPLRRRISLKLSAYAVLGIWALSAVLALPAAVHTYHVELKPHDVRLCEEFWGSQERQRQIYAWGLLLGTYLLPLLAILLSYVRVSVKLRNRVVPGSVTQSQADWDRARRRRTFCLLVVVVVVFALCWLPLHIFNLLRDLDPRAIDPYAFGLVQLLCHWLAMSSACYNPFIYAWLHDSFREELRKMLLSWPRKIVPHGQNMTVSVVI
# Protocol: (§1) Competitive binding experiments were performed according to Motulsky and Neubig (Motulsky, A., et al., “Analyzing radioligand binding data,” Curr Protoc Neurosci, Chapter 7, Unit 7.5, 2002). Binding experiments were conducted with rat pituitary cells, and with Chinese Hamster Ovary (CHO) cells as follows:
# The rat pituitary cell line RC-4B/C (ATCC, Manassas, USA) was grown on 24-well plates which had their bottom coated with polyethyleneimine. The cells were grown to the optimal density of 300-450 thousand cells per well. The following agents were used for the experiment: binding buffer (20 mmol·l^−1 HEPES, Ph 7.4; 118 mmol·l^−1 NaCl, 4.7 mmol·l^−1 KCl, 5 mmol·l^−1 MgCl2, 5.5 mmol·l^−1 glucose, 1 mg/ml BSA, 0.1 BPTI), unlabeled analogs of PrRP (i.e. the analog being tested) at a final concentration between 10^−11 to 10^−4 mol·l^−1, and rat ^125I-PrRP31 (labeled with radioactive Iodine-125) at a final concentration of […] (Maixnerová et al., 2011).
# (§2) Plates were incubated for 60 minutes at room temperature. After incubation, the cells were solubilized in 0.1 mol/l solution of NaOH, and the radioactivity bound to the cells was counted using a γ-counter. The experiments were performed in duplicate, and repeated at least three times.
# (§3) Graph Pad Prism Software (San Diego, Calif., USA) was used for evaluating the competitive binding experiments. Nonlinear regression was performed using a onsite binding model.
# [1] = target: T2, human PrRP receptor GPR10 (Homo sapiens, UniProt P49683); experiment: Competitive binding in CHO cells transfected with human GPR10 (human 125I-PrRP31); settings: for Ki: CHO cells, human 125I-PrRP31, read-out: Ki, GPR10 human receptor transfected in CHO cells; for % of PrRP31, GPR10 human receptor transfected in CHO cells: affinity relative to PrRP31
# T2 construct: host or cells: CHO cells
# T2 sequence (P49683 1-370): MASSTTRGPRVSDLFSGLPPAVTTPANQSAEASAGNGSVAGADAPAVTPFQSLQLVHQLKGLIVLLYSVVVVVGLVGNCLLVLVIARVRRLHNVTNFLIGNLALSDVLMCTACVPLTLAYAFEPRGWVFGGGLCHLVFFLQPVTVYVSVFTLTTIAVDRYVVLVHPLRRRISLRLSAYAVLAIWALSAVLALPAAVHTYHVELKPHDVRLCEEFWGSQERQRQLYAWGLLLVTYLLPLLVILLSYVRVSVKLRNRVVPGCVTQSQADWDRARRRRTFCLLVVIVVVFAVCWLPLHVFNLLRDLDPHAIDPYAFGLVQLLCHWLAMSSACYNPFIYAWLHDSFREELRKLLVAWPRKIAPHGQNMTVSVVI
# Protocol: as §1
# CHO cells transfected with human PrRP receptor GPR10 (Perkin Elmer, USA) were grown on 24-well plates coated with polyethyleneimine. The cells were grown to the optimal density of 40-80 thousand cells per well. The following agents were used for the experiment: binding buffer (25 mmol·l^−1 Tris, pH 7.4; 118 mmol·l^−1 NaCl, 10 mmol·l^−1 MgCl2, 10 mmol·l^−1 CaCl2, 5.5 mmol·l^−1 glucose, 0.5 mg/ml BSA), unlabeled analogs of PrRP (i.e. the analog being tested) at a final concentration between 10^−11 to 10^−4 mol·l^−1, and radiolabeled human ^125I-PrRP31 at a final concentration of 5×10^−11 mol·l^−1.
# as §2, §3
Compound,Ki (rat PrRP receptor),"% of PrRP31, RC-4B/C rat pituitary cells (rat PrRP receptor)",Ki [1],"% of PrRP31, GPR10 human receptor transfected in CHO cells [1]"
"CCCC[C@H](NC(=O)[C@H](CO)NC(=O)[C@H](Cc1c[nH]cn1)NC(=O)[C@H](CCC(N)=O)NC(=O)[C@H](Cc1c[nH]cn1)NC(=O)[C@H](C)NC(=O)[C@H](CCCNC(=N)N)NC(=O)[C@@H](N)CO)C(=O)N[C@@H](CCC(=O)O)C(=O)N[C@H](C(=O)N[C@@H](CCCNC(=N)N)C(=O)N[C@H](C(=O)N1CCC[C@H]1C(=O)N[C@@H](CC(=O)O)C(=O)N[C@H](C(=O)N[C@@H](CC(N)=O)C(=O)N1CCC[C@H]1C(=O)N[C@@H](C)C(=O)N[C@@H](Cc1c[nH]c2ccccc12)C(=O)N[C@@H](Cc1ccc(O)cc1)C(=O)N[C@H](C(=O)NCC(=O)N[C@@H](CCCNC(=N)N)C(=O)NCC(=O)N[C@H](C(=O)N[C@@H](CCCNC(=N)N)C(=O)N1CCC[C@H]1C(=O)N[C@H](C(=O)NCC(=O)N[C@@H](CCCNC(=N)N)C(=O)N[C@@H](Cc1ccc(Cl)c(Cl)c1)C(N)=O)C(C)C)[C@@H](C)CC)[C@@H](C)O)[C@@H](C)CC)[C@@H](C)O)[C@@H](C)O [Analog 13] (H-SRAHQHS[Nle]ETRTPDINPAWYTGRGIRPVGR[Phe(3,4-Cl2)]-NH2; N-terminus assumed)",3.84 ± 0.93 nM,128%,2.27 ± 0.48 nM,171%
CCCC[C@H](NC(=O)[C@H](CO)NC(=O)[C@H](Cc1c[nH]cn1)NC(=O)[C@H](CCC(N)=O)NC(=O)[C@H](Cc1c[nH]cn1)NC(=O)[C@H](C)NC(=O)[C@H](CCCNC(=N)N)NC(=O)[C@@H](N)CO)C(=O)N[C@@H](CCC(=O)O)C(=O)N[C@H](C(=O)N[C@@H](CCCNC(=N)N)C(=O)N[C@H](C(=O)N1CCC[C@H]1C(=O)N[C@@H](CC(=O)O)C(=O)N[C@H](C(=O)N[C@@H](CC(N)=O)C(=O)N1CCC[C@H]1C(=O)N[C@@H](C)C(=O)N[C@@H](Cc1c[nH]c2ccccc12)C(=O)N[C@@H](Cc1ccc(O)cc1)C(=O)N[C@H](C(=O)NCC(=O)N[C@@H](CCCNC(=N)N)C(=O)NCC(=O)N[C@H](C(=O)N[C@@H](CCCNC(=N)N)C(=O)N1CCC[C@H]1C(=O)N[C@H](C(=O)NCC(=O)N[C@@H](CCCNC(=N)N)C(=O)N[C@@H](Cc1ccc([N+](=O)[O-])cc1)C(N)=O)C(C)C)[C@@H](C)CC)[C@@H](C)O)[C@@H](C)CC)[C@@H](C)O)[C@@H](C)O [Analog 16] (H-SRAHQHS[Nle]ETRTPDINPAWYTGRGIRPVGR[Phe(4-NO2)]-NH2; N-terminus assumed),19.9 ± 5.9 nM,2.5%,4.8 ± 0.88 nM,81%
CCCCCCCCCCCCCC(=O)N[C@@H](CO)C(=O)N[C@@H](CCCNC(=N)N)C(=O)N[C@@H](C)C(=O)N[C@@H](Cc1c[nH]cn1)C(=O)N[C@@H](CCC(N)=O)C(=O)N[C@@H](Cc1c[nH]cn1)C(=O)N[C@@H](CO)C(=O)N[C@@H](CCCC)C(=O)N[C@@H](CCC(=O)O)C(=O)N[C@H](C(=O)N[C@@H](CCCNC(=N)N)C(=O)N[C@H](C(=O)N1CCC[C@H]1C(=O)N[C@@H](CC(=O)O)C(=O)N[C@H](C(=O)N[C@@H](CC(N)=O)C(=O)N1CCC[C@H]1C(=O)N[C@@H](C)C(=O)N[C@@H](Cc1c[nH]c2ccccc12)C(=O)N[C@@H](Cc1ccc(O)cc1)C(=O)N[C@H](C(=O)NCC(=O)N[C@@H](CCCNC(=N)N)C(=O)NCC(=O)N[C@H](C(=O)N[C@@H](CCCNC(=N)N)C(=O)N1CCC[C@H]1C(=O)N[C@H](C(=O)NCC(=O)N[C@@H](CCCNC(=N)N)C(=O)N[C@@H](Cc1ccc([N+](=O)[O-])cc1)C(N)=O)C(C)C)[C@@H](C)CC)[C@@H](C)O)[C@@H](C)CC)[C@@H](C)O)[C@@H](C)O [Analog 17] (Myristoyl-SRAHQHS[Nle]ETRTPDINPAWYTGRGIRPVGR[Phe(4-NO2)]-NH2),1.97 ± 1.26 nM,250%,1.59 ± 1.05 nM,245%
